Data on 16 molecules can be found in US20210070748A1, “INHIBITORS OF BRUTONS TYROSINE KINASE” (Pharmacyclics LLC, priority 2015, published 2021).

A value given as a limit tells only on which side of the number the result lay.

Common to all, as to assay type: biochemical
Test [1] deals with T1, TEC (Homo sapiens, UniProt P42680).
T1 sequence (P42680 1-631): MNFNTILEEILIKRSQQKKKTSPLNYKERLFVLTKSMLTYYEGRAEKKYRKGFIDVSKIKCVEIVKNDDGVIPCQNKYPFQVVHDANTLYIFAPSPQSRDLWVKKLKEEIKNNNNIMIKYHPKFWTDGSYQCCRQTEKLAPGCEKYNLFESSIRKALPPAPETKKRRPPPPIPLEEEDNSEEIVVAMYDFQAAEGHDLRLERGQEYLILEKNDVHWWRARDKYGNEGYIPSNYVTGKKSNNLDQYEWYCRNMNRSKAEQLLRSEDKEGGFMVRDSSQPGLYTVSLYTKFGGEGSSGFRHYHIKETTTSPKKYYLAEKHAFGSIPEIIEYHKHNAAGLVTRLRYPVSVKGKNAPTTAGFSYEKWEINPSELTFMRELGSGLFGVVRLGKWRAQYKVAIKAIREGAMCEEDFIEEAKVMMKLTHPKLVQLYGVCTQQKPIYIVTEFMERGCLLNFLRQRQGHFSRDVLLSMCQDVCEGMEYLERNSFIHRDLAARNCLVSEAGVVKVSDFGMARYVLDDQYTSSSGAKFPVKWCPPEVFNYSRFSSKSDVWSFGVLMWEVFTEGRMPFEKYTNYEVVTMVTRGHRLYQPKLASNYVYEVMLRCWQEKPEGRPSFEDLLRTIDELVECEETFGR
In words: Inhibition of a panel of kinases, in vitro HotSpot kinase assay: TEC. On the procedure:
(§1) The degree of inhibition of a panel of kinases is determined using the in vitro HotSpot kinase assay (purified enzymes, ^33P-ATP, an appropriate substrate and 1 μM ATP).

Test [2] deals with T2, ITK (Homo sapiens, UniProt Q08881).
T2 sequence (Q08881 1-620): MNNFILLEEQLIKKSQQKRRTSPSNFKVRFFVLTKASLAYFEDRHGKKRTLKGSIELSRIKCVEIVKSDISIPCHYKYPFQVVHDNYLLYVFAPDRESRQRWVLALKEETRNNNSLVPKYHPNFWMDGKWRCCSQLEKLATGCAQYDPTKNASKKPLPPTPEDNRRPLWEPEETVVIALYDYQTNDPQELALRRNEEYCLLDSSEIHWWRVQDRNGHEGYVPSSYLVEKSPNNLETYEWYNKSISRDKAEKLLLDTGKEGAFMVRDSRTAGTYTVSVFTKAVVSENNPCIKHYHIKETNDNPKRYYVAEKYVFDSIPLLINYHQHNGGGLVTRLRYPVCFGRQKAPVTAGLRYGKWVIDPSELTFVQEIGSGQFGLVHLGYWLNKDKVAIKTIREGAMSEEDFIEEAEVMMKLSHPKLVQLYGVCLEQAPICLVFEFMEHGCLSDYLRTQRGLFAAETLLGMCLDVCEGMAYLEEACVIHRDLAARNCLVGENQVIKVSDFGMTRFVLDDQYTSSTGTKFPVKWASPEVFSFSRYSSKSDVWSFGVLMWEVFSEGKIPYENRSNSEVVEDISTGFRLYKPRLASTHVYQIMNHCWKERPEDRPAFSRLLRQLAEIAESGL
The test is described as follows: Inhibition of a panel of kinases, in vitro HotSpot kinase assay: ITK. How it is done: as §1

Test [3] deals with SRC (Homo sapiens, UniProt P12931). In words: Inhibition of a panel of kinases, in vitro HotSpot kinase assay: SRC. On the procedure:
as §1

The mark [4] stands for this setting: D-compounds panel data, 1 μM ATP.

Sequence of SRC (P12931 whole entry): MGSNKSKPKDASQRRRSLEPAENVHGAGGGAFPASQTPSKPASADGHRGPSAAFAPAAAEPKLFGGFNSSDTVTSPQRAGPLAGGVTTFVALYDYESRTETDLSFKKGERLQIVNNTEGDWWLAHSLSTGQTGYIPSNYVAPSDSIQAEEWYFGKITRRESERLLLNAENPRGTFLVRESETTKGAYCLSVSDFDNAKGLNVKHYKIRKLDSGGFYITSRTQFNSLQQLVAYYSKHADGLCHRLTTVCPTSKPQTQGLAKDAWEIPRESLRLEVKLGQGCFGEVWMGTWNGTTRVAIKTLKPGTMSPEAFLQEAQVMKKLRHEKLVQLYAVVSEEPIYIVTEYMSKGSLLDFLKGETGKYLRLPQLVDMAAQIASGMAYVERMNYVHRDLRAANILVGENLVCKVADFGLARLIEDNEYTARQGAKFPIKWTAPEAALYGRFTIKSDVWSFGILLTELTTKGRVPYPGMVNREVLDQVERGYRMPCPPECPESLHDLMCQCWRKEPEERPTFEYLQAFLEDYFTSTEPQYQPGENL

In the case of `Cc1csc(Nc2nc(N3CCC[C@@H](NC(=O)c4ccc(C5CC5)cc4F)[C@H]3C)cnc2C(N)=O)n1` [Example D-63, 5-[(2R,3R)-3-(4-cyclopropyl-2-fluorobenzamido)-2-methylpiperidin-1-yl]-3-[(4-methyl-1,3-thiazol-2-yl)amino]pyrazine-2-carboxamide], the IC50 in test [1] (setting [4]), in test [2] (setting [4]) and in test [3] (setting [4]) was more than 10000 nM in each case.

As for `C[C@@H]1[C@H](NC(=O)N(C)C)CCCN1c1cnc(C(N)=O)c(Nc2cn[nH]c2)n1` [Example D-53, 5-[(2R,3R)-3-[(dimethylcarbamoyl)amino]-2-methylpiperidin-1-yl]-3-[(1H-pyrazol-4-yl)amino]pyrazine-2-carboxamide], the figures for the IC50 in test [1] (setting [4]), in test [2] (setting [4]) and in test [3] (setting [4]) were 10 to 100 nM, 100 to 1000 nM and 100 to 1000 nM, respectively.

As to `C[C@@H]1[C@H](NC(=O)c2ccc(C(C)(C)C#N)cc2)CCCN1c1cnc(C(N)=O)c(Nc2cnn(C)c2)n1` [Example D-88, 5-[(2R,3R)-3-[4-(1-cyano-1-methylethyl)benzamido]-2-methylpiperidin-1-yl]-3-[(1-methyl-1H-pyrazol-4-yl)amino]pyrazine-2-carboxamide], the IC50 (commonly the midpoint of a concentration-inhibition curve) in test [1] (setting [4]) was in the range of 10 to 100 nM; in test [2] (setting [4]) it was 100 to 1000 nM; in test [3] (setting [4]), 10 to 100 nM.

For the molecule `Cc1cc(Nc2nc(N3C[C@@H](NC(=O)c4ccc(C5CC5)cc4F)CC[C@H]3C)cnc2C(N)=O)sn1` [Example D-80, 5-[(2R,5S)-5-(4-cyclopropyl-2-fluorobenzamido)-2-methylpiperidin-1-yl]-3-[(3-methyl-1,2-thiazol-5-yl)amino]pyrazine-2-carboxamide], the concentration for half-maximal inhibition (IC50) was 1000 to 10000 nM in test [1] (setting [4]), more than 10000 nM in test [2] (setting [4]) and 100 to 1000 nM in test [3] (setting [4]).

As for `C=CC(=O)N1CC[C@@H](N(C)c2cnc(C(N)=O)c(Nc3ccc(C4(C)CCN(C5CCCC5)CC4)cc3)n2)C1` [Example E-106, (R)-5-((1-acryloylpyrrolidin-3-yl)(methyl)amino)-3-(4-(1-cyclopentyl-4-methylpiperidin-4-yl)phenylamino)pyrazine-2-carboxamide], the concentration for half-maximal inhibition (IC50) in test [1] (E compounds, Table 17) is not above 10 nM; in test [2] (E compounds, Table 17) it was not above 10 nM; in test [3] (E compounds, Table 17) it was not above 10 nM.

`C[C@@H]1[C@H](NC(=O)c2ccc(C3CC3)cc2)CCCN1c1cnc(C(N)=O)c(Nc2ccc3nccn3c2)n1` [Example D-83, 5-[(2R,3R)-3-(4-cyclopropylbenzamido)-2-methylpiperidin-1-yl]-3-({imidazo[1,2-a]pyridin-6-yl}amino)pyrazine-2-carboxamide]: the 50% inhibitory concentration (IC50) in test [1] (setting [4]) was 10 to 100 nM; in test [2] (setting [4]) it was 1000 to 10000 nM; in test [3] (setting [4]), 100 to 1000 nM.

Consider `CN(C)C(=O)N[C@@H]1CCCN(c2cnc(C(N)=O)c(Nc3ccc(C4(C)CCN(C5CCCC5)CC4)cc3)n2)[C@@H]1CO` [Example D-58, 3-{[4-(1-cyclopentyl-4-methylpiperidin-4-yl)phenyl]amino}-5-[(2S,3R)-3-[(dimethylcarbamoyl)amino]-2-(hydroxymethyl)piperidin-1-yl]pyrazine-2-carboxamide], for which the 50% inhibitory concentration (IC50) fell in the range of 100 to 1000 nM in test [1] (setting [4]), 1000 to 10000 nM in test [2] (setting [4]) and 100 to 1000 nM in test [3] (setting [4]).

Turning to `C[C@@H]1[C@H](N2CCN(C)C2=O)CCCN1c1cnc(C(N)=O)c(Nc2cnn(C)c2)n1` [Example D-93, 3-[(1-methyl-1H-pyrazol-4-yl)amino]-5-[(2R,3R)-2-methyl-3-(3-methyl-2-oxoimidazolidin-1-yl)piperidin-1-yl]pyrazine-2-carboxamide], the figures for the concentration for half-maximal inhibition (IC50) in test [1] (setting [4]), in test [2] (setting [4]) and in test [3] (setting [4]) were 10 to 100 nM, 100 to 1000 nM and 10 to 100 nM, respectively.

On to `C[C@@H]1C[C@H](NC(=O)c2ccc(C3CC3)cc2)CN(c2cnc(C(N)=O)c(Nc3cnn(C)c3)n2)C1` [Example D-32, 5-[(3S,5R)-3-(4-cyclopropylbenzamido)-5-methylpiperidin-1-yl]-3-[(1-methyl-1H-pyrazol-4-yl)amino]pyrazine-2-carboxamide], for which the concentration for half-maximal inhibition (IC50) in test [1] (setting [4]) is 100 to 1000 nM; in test [2] (setting [4]) it was more than 10000 nM; in test [3] (setting [4]), more than 10000 nM.

With `CN1CCN(C(=O)c2ccc(Nc3nc(N[C@H]4CC[C@@H](NC(=O)c5ccc(C6CC6)cc5F)CC4)cnc3C(N)=O)cc2)CC1` [Example D-71, 3-{[4-(4-methylpiperazine-1-carbonyl)phenyl]amino}-5-{[(1 s,4s)-4-(4-cyclopropyl-2-fluorobenzamido)cyclohexyl]amino}pyrazine-2-carboxamide], the IC50 in test [1] (setting [4]) was in the range of 100 to 1000 nM; in test [2] (setting [4]), 1000 to 10000 nM; in test [3] (setting [4]), 100 to 1000 nM.

Regarding `C=CC(=O)N1CCC[C@@H](Nc2cnc(C(N)=O)c(Nc3ccc(C4CCN(C5CCCC5)CC4)cc3)n2)C1` [Example E-108, (R)-5-(1-acryloylpiperidin-3-ylamino)-3-(4-(1-cyclopentylpiperidin-4-yl)phenylamino)pyrazine-2-carboxamide], the IC50 in test [1] (E compounds, Table 17) was not above 10 nM; in test [2] (E compounds, Table 17), not above 10 nM; in test [3] (E compounds, Table 17) it was 10 to 100 nM.

On to `C[C@@H]1[C@H](NC(=O)c2ccc(C3CC3)cc2)CCCN1c1cnc(C(N)=O)c(Nc2cnc(N3CCN(C)CC3)nc2)n1` [Example D-318, 5-[(2R,3R)-3-(4-cyclopropylbenzamido)-2-methylpiperidin-1-yl]-3-{[2-(4-methylpiperazin-1-yl)pyrimidin-5-yl]amino}pyrazine-2-carboxamide], for which the IC50 in test [1] (setting [4]) fell in the range of 10 to 100 nM; in test [2] (setting [4]), 100 to 1000 nM; in test [3] (setting [4]) it was 100 to 1000 nM.

On to `Cc1cc(Nc2nc(N3CCC[C@@H](NC(=O)c4ccc(C5CC5)cc4F)C3)cnc2C(N)=O)on1` [Example D-2, 5-[(3R)-3-(4-cyclopropyl-2-fluorobenzamido)piperidin-1-yl]-3-[(3-methyl-1,2-oxazol-5-yl)amino]pyrazine-2-carboxamide], for which the IC50 in test [1] (setting [4]) is 1000 to 10000 nM; in test [2] (setting [4]), more than 10000 nM; in test [3] (setting [4]), 1000 to 10000 nM.

With `C[C@@H]1[C@H](N2Cc3cc(C4CC4)ccc3C2=O)CCCN1c1cnc(C(N)=O)c(Nc2cnn(C)c2)n1` [Example D-36, 5-[(2R,3R)-3-(5-cyclopropyl-1-oxo-2,3-dihydro-1H-isoindol-2-yl)-2-methylpiperidin-1-yl]-3-[(1-methyl-1H-pyrazol-4-yl)amino]pyrazine-2-carboxamide], the 50% inhibitory concentration (IC50) was not above 10 nM in test [1] (setting [4]), 100 to 1000 nM in test [2] (setting [4]) and 100 to 1000 nM in test [3] (setting [4]).

Take `Cc1cc(Nc2nc(N3CCC[C@@H](NC(=O)N(C)C)[C@H]3CO)cnc2C(N)=O)sn1` [Example D-67, 5-[(2S,3R)-3-[(dimethylcarbamoyl)amino]-2-(hydroxymethyl)piperidin-1-yl]-3-[(3-methyl-1,2-thiazol-5-yl)amino]pyrazine-2-carboxamide]: the results for the IC50 in test [1] (setting [4]), in test [2] (setting [4]) and in test [3] (setting [4]) were 100 to 1000 nM, 1000 to 10000 nM and 100 to 1000 nM, respectively.

Consider `C[C@H]1C[C@H](NC(=O)c2ccc(C3CC3)cc2)CN(c2cnc(C(N)=O)c(Nc3cnn(C)c3)n2)C1` [Example D-34, 5-[(3S,5S)-3-(4-cyclopropylbenzamido)-5-methylpiperidin-1-yl]-3-[(1-methyl-1H-pyrazol-4-yl)amino]pyrazine-2-carboxamide], for which the half-maximal inhibitory concentration (IC50) is 1000 to 10000 nM in test [1] (setting [4]), more than 10000 nM in test [2] (setting [4]) and more than 10000 nM in test [3] (setting [4]).
